Experiments:
Assay type in all cases: in vivo
Conditions in all cases: treatment dosage 320 g/ha
directly sown rice [1] = test: Test Example 4: foliar treatment, effect on crop; b: directly sown rice
Summary of the method: (§1)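 Seeds are spot-sown into sterilized diluvial soil and covered with about 1.5 cm of soil. After 14 days' greenhouse growth at 25 to 30° C, plants are sprayed on stems and leaves with diluted emulsion at the stated g/ha rate, then scored at 3 weeks.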

chickweed [2] = test: Test Example 3: weedkilling efficacy through soil treatment; N: chickweed
Summary of the method: (§2)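 Crop and weed responses were judged three weeks after a uniform surface spray of the water-diluted emulsion at the given g/ha rate. Seeds sat beneath about 1.5 cm of sterilized diluvial soil, and boxes stood in a greenhouse at 25 to 30° C.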

beet [3] = test: Test Example 4: foliar treatment, effect on crop; f: beet
Summary of the method: as §1

black-grass [4] = test: Test Example 4: weedkilling efficacy by foliar treatment; H: black-grass
Summary of the method: as §1

rapeseed [5] = test: Test Example 4: foliar treatment, effect on crop; g: rapeseed
Summary of the method: as §1

directly sown rice [6] = test: Test Example 3: soil treatment, effect on crop; b: directly sown rice
Summary of the method: as §2

barnyard grass [7] = test: Test Example 2: weedkilling efficacy, growth period weed treatment in the submerged state; A: barnyard grass
Summary of the method: (§3)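 Weeds treated at the 1-2 leaf stage by application of diluted emulsion onto floodwater (4 cm depth, alluvial soil) at specified g/ha. Grown in greenhouse at 25 to 30° C; herbicidal effect rated three weeks after treatment.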

catchweed [8] = test: Test Example 3: weedkilling efficacy through soil treatment; O: catchweed
Summary of the method: as §2

crabgrass [9] = test: Test Example 4: weedkilling efficacy by foliar treatment; D: crabgrass
Summary of the method: as §1

wild oat [10] = test: Test Example 3: weedkilling efficacy through soil treatment; G: wild oat
Summary of the method: as §2

bulrush [11] = test: Test Example 1: weedkilling efficacy, preemergent weed treatment in the submerged state; B: bulrush
Summary of the method: (§4)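 Pots of alluvial soil were flooded to a 4 cm depth. Mixed weed seeds were sown and 2.5 leaf-stage rice seedlings transplanted. On sowing day, water-diluted emulsion was applied to the water surface (dose in g/ha). After 3 weeks at 25–30 °C, effects were rated.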

chickweed [12] = test: Test Example 4: weedkilling efficacy by foliar treatment; N: chickweed
Summary of the method: as §1

corn [13] = test: Test Example 3: soil treatment, effect on crop; c: corn
Summary of the method: as §2

fig-leafed goosefoot [14] = test: Test Example 3: weedkilling efficacy through soil treatment; M: fig-leafed goosefoot
Summary of the method: as §2

common wind-grass [15] = test: Test Example 3: weedkilling efficacy through soil treatment; J: common wind-grass
Summary of the method: as §2

redroot pigweed [16] = test: Test Example 4: weedkilling efficacy by foliar treatment; L: redroot pigweed
Summary of the method: as §1

Indian mallow [17] = test: Test Example 4: weedkilling efficacy by foliar treatment; K: Indian mallow
Summary of the method: as §1

barnyard grass [18] = test: Test Example 1: weedkilling efficacy, preemergent weed treatment in the submerged state; A: barnyard grass
Summary of the method: as §4

wild oat [19] = test: Test Example 4: weedkilling efficacy by foliar treatment; G: wild oat
Summary of the method: as §1

barnyard grass [20] = test: Test Example 3: weedkilling efficacy through soil treatment; F: barnyard grass
Summary of the method: as §2

birds-eye speedwell [21] = test: Test Example 3: weedkilling efficacy through soil treatment; p: birds-eye speedwell
Summary of the method: as §2

soybean [22] = test: Test Example 3: soil treatment, effect on crop; d: soybean
Summary of the method: as §2

redroot pigweed [23] = test: Test Example 3: weedkilling efficacy through soil treatment; L: redroot pigweed
Summary of the method: as §2

beet [24] = test: Test Example 3: soil treatment, effect on crop; f: beet
Summary of the method: as §2

green foxtail [25] = test: Test Example 4: weedkilling efficacy by foliar treatment; E: green foxtail
Summary of the method: as §1

Italian ryegrass [26] = test: Test Example 4: weedkilling efficacy by foliar treatment; I: Italian ryegrass
Summary of the method: as §1

green foxtail [27] = test: Test Example 3: weedkilling efficacy through soil treatment; E: green foxtail
Summary of the method: as §2

barnyard grass [28] = test: Test Example 4: weedkilling efficacy by foliar treatment; F: barnyard grass
Summary of the method: as §1

transplanted rice = test: Test Example 1: preemergent weed treatment in the submerged state, effect on crop; a: transplanted rice
Summary of the method: as §4

oval-leafed pondweed [29] = test: Test Example 1: weedkilling efficacy, preemergent weed treatment in the submerged state; C: oval-leafed pondweed
Summary of the method: as §4

soybean [30] = test: Test Example 4: foliar treatment, effect on crop; d: soybean
Summary of the method: as §1

wheat [31] = test: Test Example 4: foliar treatment, effect on crop; e: wheat
Summary of the method: as §1

bulrush [32] = test: Test Example 2: weedkilling efficacy, growth period weed treatment in the submerged state; B: bulrush
Summary of the method: as §3

fig-leafed goosefoot [33] = test: Test Example 4: weedkilling efficacy by foliar treatment; M: fig-leafed goosefoot
Summary of the method: as §1

birds-eye speedwell [34] = test: Test Example 4: weedkilling efficacy by foliar treatment; p: birds-eye speedwell
Summary of the method: as §1

oval-leafed pondweed [35] = test: Test Example 2: weedkilling efficacy, growth period weed treatment in the submerged state; C: oval-leafed pondweed
Summary of the method: as §3

rapeseed [36] = test: Test Example 3: soil treatment, effect on crop; g: rapeseed
Summary of the method: as §2

crabgrass [37] = test: Test Example 3: weedkilling efficacy through soil treatment; D: crabgrass
Summary of the method: as §2

Italian ryegrass [38] = test: Test Example 3: weedkilling efficacy through soil treatment; I: Italian ryegrass
Summary of the method: as §2

common wind-grass [39] = test: Test Example 4: weedkilling efficacy by foliar treatment; J: common wind-grass
Summary of the method: as §1

Indian mallow [40] = test: Test Example 3: weedkilling efficacy through soil treatment; K: Indian mallow
Summary of the method: as §2

wheat [41] = test: Test Example 3: soil treatment, effect on crop; e: wheat
Summary of the method: as §2

catchweed [42] = test: Test Example 4: weedkilling efficacy by foliar treatment; O: catchweed
Summary of the method: as §1

black-grass [43] = test: Test Example 3: weedkilling efficacy through soil treatment; H: black-grass
Summary of the method: as §2

corn [44] = test: Test Example 4: foliar treatment, effect on crop; c: corn
Summary of the method: as §1

In the case of `CC1=C(c2ccccc2)C(=O)N(C(C)(C)C(=O)Nc2cc(C)cc(F)n2)CO1` [B-2-38], the “b (directly sown rice) effect on crop grade” value (directly sown rice [1]) is reported as 5 (weed kill ratio 90% or more, (practically complete withering)), the “N (chickweed) weedkilling efficacy grade” value (chickweed [2]) is reported as 4 (weed kill ratio 70% or more, less than 90%) and the “f (beet) effect on crop grade” value (beet [3]) is reported as 4 (weed kill ratio 70% or more, less than 90%). The “H (black-grass) weedkilling efficacy grade” value (black-grass [4]) was 5 (weed kill ratio 90% or more, (practically complete withering)), the “g (rapeseed) effect on crop grade” value (rapeseed [5]) was 4 (weed kill ratio 70% or more, less than 90%) and the “b (directly sown rice) effect on crop grade” value (directly sown rice [6]) was 5 (weed kill ratio 90% or more, (practically complete withering)). For the same molecule, the “A (barnyard grass) weedkilling efficacy grade” value (barnyard grass [7]) was 5 (weed kill ratio 90% or more, (practically complete withering)), the “O (catchweed) weedkilling efficacy grade” value (catchweed [8]) was 5 (weed kill ratio 90% or more, (practically complete withering)) and the “D (crabgrass) weedkilling efficacy grade” value (crabgrass [9]) was 5 (weed kill ratio 90% or more, (practically complete withering)). For the same molecule, the “G (wild oat) weedkilling efficacy grade” value (wild oat [10]) was 5 (weed kill ratio 90% or more, (practically complete withering)), the “B (bulrush) weedkilling efficacy grade” value (bulrush [11]) was 5 (weed kill ratio 90% or more, (practically complete withering)) and the “N (chickweed) weedkilling efficacy grade” value (chickweed [12]) was 4 (weed kill ratio 70% or more, less than 90%). For the same molecule, the “c (corn) effect on crop grade” value (corn [13]) was 1 (weed kill ratio 5% or more, less than 20%), the “M (fig-leafed goosefoot) weedkilling efficacy grade” value (fig-leafed goosefoot [14]) was 4 (weed kill ratio 70% or more, less than 90%) and the “J (common wind-grass) weedkilling efficacy grade” value (common wind-grass [15]) was 5 (weed kill ratio 90% or more, (practically complete withering)). For the same molecule, the “L (redroot pigweed) weedkilling efficacy grade” value (redroot pigweed [16]) was 4 (weed kill ratio 70% or more, less than 90%), the “K (Indian mallow) weedkilling efficacy grade” value (Indian mallow [17]) was 4 (weed kill ratio 70% or more, less than 90%) and the “A (barnyard grass) weedkilling efficacy grade” value (barnyard grass [18]) was 5 (weed kill ratio 90% or more, (practically complete withering)). For the same molecule, the “G (wild oat) weedkilling efficacy grade” value (wild oat [19]) was 5 (weed kill ratio 90% or more, (practically complete withering)), the “F (barnyard grass) weedkilling efficacy grade” value (barnyard grass [20]) was 5 (weed kill ratio 90% or more, (practically complete withering)) and the “P (birds-eye speedwell) weedkilling efficacy grade” value (birds-eye speedwell [21]) was 5 (weed kill ratio 90% or more, (practically complete withering)). For the same molecule, the “d (soybean) effect on crop grade” value (soybean [22]) was 4 (weed kill ratio 70% or more, less than 90%), the “L (redroot pigweed) weedkilling efficacy grade” value (redroot pigweed [23]) was 3 (weed kill ratio 40% or more, less than 70%) and the “f (beet) effect on crop grade” value (beet [24]) was 4 (weed kill ratio 70% or more, less than 90%). For the same molecule, the “E (green foxtail) weedkilling efficacy grade” value (green foxtail [25]) was 5 (weed kill ratio 90% or more, (practically complete withering)), the “I (Italian ryegrass) weedkilling efficacy grade” value (Italian ryegrass [26]) was 5 (weed kill ratio 90% or more, (practically complete withering)) and the “E (green foxtail) weedkilling efficacy grade” value (green foxtail [27]) was 5 (weed kill ratio 90% or more, (practically complete withering)). The “F (barnyard grass) weedkilling efficacy grade” value (barnyard grass [28]) was 5 (weed kill ratio 90% or more, (practically complete withering)), the “a (transplanted rice) effect on crop grade” value (transplanted rice) was 3 (weed kill ratio 40% or more, less than 70%) and the “C (oval-leafed pondweed) weedkilling efficacy grade” value (oval-leafed pondweed [29]) was 5 (weed kill ratio 90% or more, (practically complete withering)). For the same molecule, the “d (soybean) effect on crop grade” value (soybean [30]) was 4 (weed kill ratio 70% or more, less than 90%), the “e (wheat) effect on crop grade” value (wheat [31]) was 1 (weed kill ratio 5% or more, less than 20%) and the “B (bulrush) weedkilling efficacy grade” value (bulrush [32]) was 5 (weed kill ratio 90% or more, (practically complete withering)). The “M (fig-leafed goosefoot) weedkilling efficacy grade” value (fig-leafed goosefoot [33]) was 4 (weed kill ratio 70% or more, less than 90%), the “P (birds-eye speedwell) weedkilling efficacy grade” value (birds-eye speedwell [34]) was 4 (weed kill ratio 70% or more, less than 90%) and the “C (oval-leafed pondweed) weedkilling efficacy grade” value (oval-leafed pondweed [35]) was 5 (weed kill ratio 90% or more, (practically complete withering)). For the same molecule, the “g (rapeseed) effect on crop grade” value (rapeseed [36]) was 4 (weed kill ratio 70% or more, less than 90%), the “D (crabgrass) weedkilling efficacy grade” value (crabgrass [37]) was 5 (weed kill ratio 90% or more, (practically complete withering)) and the “I (Italian ryegrass) weedkilling efficacy grade” value (Italian ryegrass [38]) was 5 (weed kill ratio 90% or more, (practically complete withering)). The “J (common wind-grass) weedkilling efficacy grade” value (common wind-grass [39]) was 5 (weed kill ratio 90% or more, (practically complete withering)), the “K (Indian mallow) weedkilling efficacy grade” value (Indian mallow [40]) was 1 (weed kill ratio 5% or more, less than 20%) and the “e (wheat) effect on crop grade” value (wheat [41]) was 0 (weed kill ratio 5% or less (practically no effect)). The “O (catchweed) weedkilling efficacy grade” value (catchweed [42]) was 4 (weed kill ratio 70% or more, less than 90%), the “H (black-grass) weedkilling efficacy grade” value (black-grass [43]) was 5 (weed kill ratio 90% or more, (practically complete withering)) and the “c (corn) effect on crop grade” value (corn [44]) was 5 (weed kill ratio 90% or more, (practically complete withering)).

Source: US9738634B2, “Heterocyclic amide compound and herbicide” (SYNGENTA PARTICIPATIONS AG, priority 2013, dated 2017)
